Source: paper PMC12656329, “Specific Hepatorenal Toxicity and Cross-Species Susceptibility of Eight Representative Pesticides” (Toxics, 2025)
Entries after “also recorded” stand apart in the source; their conditions may differ.

Columns and labels:
293T renal cells [1] = assay: ELISA of toxicity biomarkers (LDH, KIM-1) in culture supernatant, 293T; assay type: cell-based, human; settings: 293T cells, 24 h exposure at median lethal concentration, vs control
Procedure: The levels of hepatotoxicity biomarkers (ALT, AST, ALP) and nephrotoxicity biomarkers (KIM-1, LDH) in cell culture supernatant were quantified using commercially available ELISA kits (Cloud-Clone Corp., Wuhan, China). 100 μL of the supernatant was added to the pre-coated wells and incubated according to the manufacturer’s protocol (five replicates). After washing, the appropriate detection antibody and substrate were added, and the absorbance was measured at 450 nm using microplate reader. The concentrations of the biomarkers were determined based on standard curves.

293T renal cells [2] = assay: CCK-8 cytotoxicity assay, 293T; assay type: cell-based, human; settings: Homo sapiens, HEK-293T, 24 h, CCK-8, 24 h exposure
Procedure: (§1) Human embryonic kidney 293T (HEK293T) cells and rat renal NRK cells were maintained in high-glucose DMEM supplemented with 10% fetal bovine serum (FBS) and 1% penicillin–streptomycin at 37 °C under 5% CO2 until reaching 70–80%. Human liver CCC-HEL-1 cells were cultured under identical conditions but with 20% FBS, while rat normal hepatocytes were grown in high-glucose MEM containing 20% FBS and 1% penicillin–streptomycin. Stock solutions (500 g/L) of eight pesticide standards were prepared in dimethyl sulfoxide (DMSO) and stored at −20 °C. Working concentrations were freshly diluted in serum-containing culture medium prior to each experiment.
(§2) The cytotoxicity of eight pesticides on four mammalian cell lines was assessed using the Cell Counting Kit-8 (CCK-8) assay. Initially, stock solutions of each pesticide were prepared by dissolving the compound in dimethyl sulfoxide (DMSO) to a final concentration of 500 g/L. For the assay, cells were seeded into 96-well plates at a density of 2 × 10^4 cells per well in 100 µL of medium and incubated for 24 h at 37 °C under a 5% CO2 atmosphere to allow for attachment. Subsequently, the culture medium was replaced with fresh medium containing the pesticides at a series of final concentrations (0, 10, 100, 200, 400, 800, 1000, and 2500 mg/L). Pesticide working concentrations were prepared through serial dilution of the 500 g/L DMSO stock solution, resulting in variable final DMSO concentrations across treatment groups (ranging from 0.002% to 0.5% v/v). A media-only blank (no cells) was included for background absorbance correction, and a solvent control (0.1% DMSO, no pesticide) was used to account for any vehicle effects. All conditions were performed in five replicates. […] At DMSO concentrations ranging from 0.1% to 0.2%, the viability of all four cell lines remained stable above 80%. At a 1% DMSO concentration, the viability of all four cell types was around 50% or higher (Supplementary Figure S5). Following 24 h of exposure, 10 µL of CCK-8 reagent was added to each well. Absorbance Measurement: After an additional 1 h of incubation in the dark, the optical density (OD) at 450 nm was recorded using a microplate reader. Cell viability was calculated by comparing the OD values of treated groups with those of the blank control. Although some test concentrations exceeded the water solubility of the pesticides, the combination of DMSO and serum in the culture medium maintained a uniform exposure system. No precipitation was observed during the experiment, ensuring that the measured effects are attributed to the bioavailable fraction of the compound. […]
(§3) 1. Pesticide Exposure: After removing the medium, fresh medium containing gradient concentrations (0–2500 mg/L) of each pesticide was added (five replicates per concentration).
(§4) Following 24 h of exposure, 10 µL of CCK-8 reagent was added to each well.
(§5) 2. Absorbance Measurement: After 1 h of dark incubation, the OD at 450 nm was measured using a microplate reader.
(§6) 3. Cell Viability Calculation: Viability was determined by comparing the OD values of treated groups to the blank control. […]

Rat = settings: rat, in vivo, po; cited from earlier work
[3] = basis species not given; ref PPDB: Pesticide Properties DataBase; cited from earlier work
IAR hepatocytes = assay: CCK-8 cytotoxicity assay, IAR; assay type: cell-based; settings: Rattus norvegicus, Hepatocyte; CCK-8, 24 h exposure
Procedure: as §1, §2, §3, §4, §5, §6

CCC-HEL-1 hepatocytes = assay: CCK-8 cytotoxicity assay, CCC-HEL-1; assay type: cell-based; settings: Homo sapiens, Hepatocyte; CCK-8, 24 h exposure
Procedure: as §1, §2, §3, §4, §5, §6

NRK renal cells = assay: CCK-8 cytotoxicity assay, NRK; assay type: cell-based; settings: Rattus norvegicus; CCK-8, 24 h exposure
Procedure: as §1, §2, §3, §4, §5, §6

[4] = test system: MRP2 in CCC-HEL-1 hepatic cells; assay: MRP2 immunofluorescence staining, CCC-HEL-1; assay type: cell-based, human; settings: CCC-HEL-1 cells, 24 h at IC50, immunofluorescence
Procedure: Cells were seeded at a density of 1 × 10^5 cells per well in immunofluorescence-specific glass-bottom dishes and allowed to adhere for 24 h. […] Following treatment, cells were fixed with 4% paraformaldehyde for 15 min at room temperature and permeabilized with 0.1% Triton X-100 for 10 min. Non-specific binding was blocked with 5% bovine serum albumin (BSA) for 1 h at room temperature. Cells were then incubated with primary antibody against MRP2 (1:300 dilution) overnight at 4 °C. After three washes with PBS, cells were treated with secondary antibody (rabbit anti-IgG, 1:600 dilution) for 1 h at room temperature and washed three times with PBS. Anti-MRP2 antibody (Abcam, ab172630) and Alexa Fluor® 488-conjugated anti-rabbit IgG secondary antibody (Cell Signaling Technology, Danvers, MA, USA, 4412) were used for immunofluorescence staining. Nuclei were counterstained with DAPI Staining Solution (C1005, 10 mL) (Beyotime Biotechnology, Shanghai, China). Fluorescent images were captured using a 10× inverted fluorescence microscope. Quantitative analysis of fluorescence intensity was performed using ImageJ software 2.1.0 (National Institutes of Health, Bethesda, MD, USA).

For `CCCC1COC(Cn2cncn2)(c2ccc(Cl)cc2Cl)O1` (centres unmarked) [Propiconazole, propiconazole], the LDH release (293T renal cells [1]) is listed as “significantly increased; also recorded: significantly elevated LDH release”, the IC50 (293T renal cells [2]) is listed as 27.2 µg/mL and the “Mammals - Acute oral LD50” value (Rat) is listed as 550 mg/kg. The “ADI - Acceptable Daily Intake” value [3] was 0.04 mg kg⁻¹ bw day⁻¹, the IC50 (IAR hepatocytes) was 189 µg/mL and the IC50 (CCC-HEL-1 hepatocytes) was 72.6 µg/mL. The IC50 (NRK renal cells) was 203 µg/mL and the “MRP2 upregulation relative to controls” value [4] was 1.5 fold.
